Test results taken from the NIST ThermoML archive (doi:10.1021/je300673m).
Numbers after ± are expanded uncertainties.

Assay: mn = molality of the nth substance listed, in mol/kg
Settings: 101 kPa, Liquid

## O=P([O-])([O-])O.[K+].[K+] [dipotassium hydrogen phosphate] + O
288.15 K, m1 = 0.2
  viscosity: 1.201 ± 0.035 mPa·s
288.15 K, m1 = 0.4
  viscosity: 1.329 ± 0.036 mPa·s
288.15 K, m1 = 0.6
  viscosity: 1.409 ± 0.036 mPa·s
288.15 K, m1 = 0.8
  viscosity: 1.534 ± 0.037 mPa·s
298.15 K, m1 = 0.2
  viscosity: 0.953 ± 0.033 mPa·s
298.15 K, m1 = 0.4
  viscosity: 1.057 ± 0.034 mPa·s
298.15 K, m1 = 0.6
  viscosity: 1.118 ± 0.034 mPa·s
298.15 K, m1 = 0.8
  viscosity: 1.217 ± 0.035 mPa·s
308.15 K, m1 = 0.2
  viscosity: 0.781 ± 0.032 mPa·s
308.15 K, m1 = 0.4
  viscosity: 0.867 ± 0.032 mPa·s
308.15 K, m1 = 0.6
  viscosity: 0.916 ± 0.033 mPa·s
308.15 K, m1 = 0.8
  viscosity: 0.997 ± 0.033 mPa·s
318.15 K, m1 = 0.2
  viscosity: 0.659 ± 0.031 mPa·s
318.15 K, m1 = 0.4
  viscosity: 0.73 ± 0.032 mPa·s
318.15 K, m1 = 0.6
  viscosity: 0.77 ± 0.032 mPa·s
318.15 K, m1 = 0.8
  viscosity: 0.833 ± 0.032 mPa·s
